Key:
Format in all cases: in vivo
[1] = tested on: barnyardgrass (Echinochloa crusgalli); assay: Test B flooded paddy test, visual plant response rating 0-100; conditions: 250 g ai/ha, Flood, applied to paddy water, evaluated after 13 days
Procedure, shortened: (§1)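 Visual evaluation after 13 days. Water-applied treatment, 3 cm flood depth held constant, plants at 2-leaf stage at treatment.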

[2] = tested on: sedge, umbrella (small-flower umbrella sedge, Cyperus difformis); assay: as above; conditions: 250 g ai/ha, Flood, applied to paddy water, evaluated after 13 days
Procedure, shortened: as §1

rice (Oryza sativa) = assay: as above; conditions: 250 g ai/ha, Flood, applied to paddy water, evaluated after 13 days
Procedure, shortened: as §1

[3] = tested on: ducksalad (Heteranthera limosa); assay: as above; conditions: 250 g ai/ha, Flood, applied to paddy water, evaluated after 13 days
Procedure, shortened: as §1

[4] = tested on: blackgrass (Alopecurus myosuroides); assay: Test A postemergence application, visual injury rating 0-100; conditions: 10 days
Procedure, shortened: (§2)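 Seeds sown in loam-sand blend got a preemergence directed soil spray, or emerged plants (2-10 cm, one- to two-leaf) got a postemergence spray, of compound in non-phytotoxic solvent with surfactant. After 10 days in greenhouse, injury rated visually versus untreated controls on a 0 (no effect) to 100 (complete control) scale.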

[5] = tested on: wheat (Triticum aestivum); assay: as above; conditions: 10 days
Procedure, shortened: as §2

[6] = tested on: palmer (palmer amaranth, palmer pigweed, Amaranthus palmeri); assay: as above; conditions: 10 days
Procedure, shortened: as §2

kochia (Bassia scoparia) [7] = assay: as above; conditions: 10 days
Procedure, shortened: as §2

[8] = tested on: barnyardgrass (Echinochloa crus-galli); assay: as above; conditions: 10 days
Procedure, shortened: as §2

[9] = tested on: ragweed (common ragweed, Ambrosia artemisiifolia); assay: as above; conditions: 10 days
Procedure, shortened: as §2

[10] = tested on: green foxtail (Setaria viridis); assay: as above; conditions: 10 days
Procedure, shortened: as §2

[11] = tested on: ryegrass, Italian (italian ryegrass, Lolium multiflorum); assay: as above; conditions: 10 days
Procedure, shortened: as §2

[12] = tested on: horseweed (Erigeron canadensis); assay: as above; conditions: 10 days
Procedure, shortened: as §2

corn (Zea mays) [13] = assay: as above; conditions: 10 days
Procedure, shortened: as §2

[14] = tested on: oat, wild (wild oat, Avena fatua); assay: as above; conditions: 10 days
Procedure, shortened: as §2

soybean (Glycine max) [15] = assay: as above; conditions: 10 days
Procedure, shortened: as §2

[16] = tested on: blackgrass (Alopecurus myosuroides); assay: Test A preemergence soil spray, visual injury rating 0-100; conditions: 10 days, 0 = no effect, 100 = complete control
Procedure, shortened: as §2

[17] = tested on: wheat (Triticum aestivum); assay: as above; conditions: 10 days, 0 = no effect, 100 = complete control
Procedure, shortened: as §2

[18] = tested on: palmer (palmer amaranth, palmer pigweed, Amaranthus palmeri); assay: as above; conditions: 10 days, 0 = no effect, 100 = complete control
Procedure, shortened: as §2

kochia (Bassia scoparia) [19] = assay: as above; conditions: 10 days, 0 = no effect, 100 = complete control
Procedure, shortened: as §2

[20] = tested on: barnyardgrass (Echinochloa crus-galli); assay: as above; conditions: 10 days, 0 = no effect, 100 = complete control
Procedure, shortened: as §2

[21] = tested on: ragweed (common ragweed, Ambrosia artemisiifolia); assay: as above; conditions: 10 days, 0 = no effect, 100 = complete control
Procedure, shortened: as §2

[22] = tested on: green foxtail (Setaria viridis); assay: as above; conditions: 10 days, 0 = no effect, 100 = complete control
Procedure, shortened: as §2

[23] = tested on: ryegrass, Italian (italian ryegrass, Lolium multiflorum); assay: as above; conditions: 10 days, 0 = no effect, 100 = complete control
Procedure, shortened: as §2

corn (Zea mays) [24] = assay: as above; conditions: 10 days, 0 = no effect, 100 = complete control
Procedure, shortened: as §2

[25] = tested on: oat, wild (wild oat, Avena fatua); assay: as above; conditions: 10 days, 0 = no effect, 100 = complete control
Procedure, shortened: as §2

soybean (Glycine max) [26] = assay: as above; conditions: 10 days, 0 = no effect, 100 = complete control
Procedure, shortened: as §2

[27] = 31 g ai/ha, postemergence, 0 = no effect, 100 = complete control
[28] = Postemergence, 125 g ai/ha, 0 is no effect, 100 is complete control

Question: With `CONC(=O)C1CC(NC(=O)C2(C)CN(c3cc(F)cc(F)c3)C(=O)O2)CO1` (centres unmarked) [Compound 39] as the molecule, how does the “Plant response rating, Barnyardgrass (0 to 100 scale, 0 is no effect and 100 is complete control)” value [1] read?
Answer: 0

Question: And the “Plant response rating, Sedge, Umbrella (0 to 100 scale, 0 is no effect and 100 is complete control)” value [2]?
Answer: 0

Question: And the “Plant response rating, Rice (0 to 100 scale, 0 is no effect and 100 is complete control)” value (rice (Oryza sativa))?
Answer: 0

Question: And the “Plant response rating, Ducksalad (0 to 100 scale, 0 is no effect and 100 is complete control)” value [3]?
Answer: 0

Question: And the “Blackgrass plant response rating (0-100)” value [4, 27]?
Answer: 90

Question: What about the “Blackgrass plant response rating (0 to 100 scale)” value [4, 28] of the same molecule?
Answer: 100

Question: What about the “Wheat plant response rating (0-100)” value [5, 27] of the same molecule?
Answer: 90

Question: And the “Wheat plant response rating (0 to 100 scale)” value [5, 28]?
Answer: 90

Question: And the “Amaranth, Palmer plant response rating (0-100)” value [6, 27]?
Answer: 0

Question: What about the “Amaranth, Palmer / Pigweed, Palmer plant response rating (0 to 100 scale)” value [6, 28] of the same molecule?
Answer: 20

Question: And the “Kochia plant response rating (0-100)” value (kochia (Bassia scoparia) [7]; [27])?
Answer: 20

Question: What about the “Kochia plant response rating (0 to 100 scale)” value (kochia (Bassia scoparia) [7]; [28]) of the same molecule?
Answer: 50

Question: What about the “Barnyardgrass plant response rating (0-100)” value [8, 27] of the same molecule?
Answer: 10

Question: What about the “Barnyardgrass plant response rating (0 to 100 scale)” value [8, 28] of the same molecule?
Answer: 90

Question: And the “Ragweed plant response rating (0-100)” value [9, 27]?
Answer: 0

Question: And the “Ragweed plant response rating (0 to 100 scale)” value [9, 28]?
Answer: 20

Question: And the “Foxtail, Green plant response rating (0-100)” value [10, 27]?
Answer: 20

Question: What about the “Foxtail, Green plant response rating (0 to 100 scale)” value [10, 28] of the same molecule?
Answer: 90

Question: What about the “Ryegrass, Italian plant response rating (0-100)” value [11, 27] of the same molecule?
Answer: 30

Question: What about the “Ryegrass, Italian plant response rating (0 to 100 scale)” value [11, 28] of the same molecule?
Answer: 80

Question: And the “Horseweed plant response rating (0-100)” value [12, 27]?
Answer: 10

Question: What about the “Horseweed plant response rating (0 to 100 scale)” value [12, 28] of the same molecule?
Answer: 0

Question: And the “Corn plant response rating (0-100)” value (corn (Zea mays) [13]; [27])?
Answer: 0

Question: What about the “Corn plant response rating (0 to 100 scale)” value (corn (Zea mays) [13]; [28]) of the same molecule?
Answer: 100

Question: What about the “Oat, Wild plant response rating (0-100)” value [14, 27] of the same molecule?
Answer: 90

Question: And the “Oat, Wild plant response rating (0 to 100 scale)” value [14, 28]?
Answer: 90

Question: What about the “Soybean plant response rating (0-100)” value (soybean (Glycine max) [15]; [27]) of the same molecule?
Answer: 20

Question: And the “Soybean plant response rating (0 to 100 scale)” value (soybean (Glycine max) [15]; [28])?
Answer: 60

Question: And the “Blackgrass plant response rating (0-100)” value ([16]; 31 g ai/ha)?
Answer: 0

Question: What about the “Blackgrass plant response rating (0 to 100 scale)” value ([16]; 125 g ai/ha) of the same molecule?
Answer: 60

Question: And the “Wheat plant response rating (0-100)” value ([17]; 31 g ai/ha)?
Answer: 0

Question: And the “Wheat plant response rating (0 to 100 scale)” value ([17]; 125 g ai/ha)?
Answer: 90

Question: And the “Amaranth, Palmer plant response rating (0-100)” value ([18]; 31 g ai/ha)?
Answer: 0

Question: What about the “Amaranth, Palmer plant response rating (0 to 100 scale)” value ([18]; 125 g ai/ha) of the same molecule?
Answer: 0

Question: What about the “Kochia plant response rating (0-100)” value (kochia (Bassia scoparia) [19]; 31 g ai/ha) of the same molecule?
Answer: 0

Question: And the “Kochia plant response rating (0 to 100 scale)” value (kochia (Bassia scoparia) [19]; 125 g ai/ha)?
Answer: 20

Question: What about the “Barnyardgrass plant response rating (0-100)” value ([20]; 31 g ai/ha) of the same molecule?
Answer: 0

Question: What about the “Barnyardgrass plant response rating (0 to 100 scale)” value ([20]; 125 g ai/ha) of the same molecule?
Answer: 20

Question: And the “Ragweed plant response rating (0-100)” value ([21]; 31 g ai/ha)?
Answer: 0

Question: What about the “Ragweed plant response rating (0 to 100 scale)” value ([21]; 125 g ai/ha) of the same molecule?
Answer: 0

Question: What about the “Foxtail, Green plant response rating (0-100)” value ([22]; 31 g ai/ha) of the same molecule?
Answer: 0

Question: And the “Foxtail, Green plant response rating (0 to 100 scale)” value ([22]; 125 g ai/ha)?
Answer: 0

Question: What about the “Ryegrass, Italian plant response rating (0-100)” value ([23]; 31 g ai/ha) of the same molecule?
Answer: 0

Question: And the “Ryegrass, Italian plant response rating (0 to 100 scale)” value ([23]; 125 g ai/ha)?
Answer: 40

Question: What about the “Corn plant response rating (0-100)” value (corn (Zea mays) [24]; 31 g ai/ha) of the same molecule?
Answer: 0

Question: What about the “Corn plant response rating (0 to 100 scale)” value (corn (Zea mays) [24]; 125 g ai/ha) of the same molecule?
Answer: 0

Question: What about the “Oat, Wild plant response rating (0-100)” value ([25]; 31 g ai/ha) of the same molecule?
Answer: 0

Question: And the “Oat, Wild plant response rating (0 to 100 scale)” value ([25]; 125 g ai/ha)?
Answer: 90

Question: And the “Soybean plant response rating (0-100)” value (soybean (Glycine max) [26]; 31 g ai/ha)?
Answer: 0

Question: And the “Soybean plant response rating (0 to 100 scale)” value (soybean (Glycine max) [26]; 125 g ai/ha)?
Answer: 10
